Reference: paper PMC9683047, “Design, synthesis and biological evaluation of 4-aminoquinoline derivatives as receptor-interacting protein kinase 2 (RIPK2) inhibitors” (Journal of Enzyme Inhibition and Medicinal Chemistry, 2022)

Legend:
PDGFRβ(h) = molecular target: T1, PDGFRβ(h) (Homo sapiens, UniProt P09619); assay: Kinase selectivity panel: PDGFRβ; type: biochemical
T1 construct: purchased Eurofins (Millipore) KinaseProfiler Diversity Panel
Description: (§1) To confirm the anti-inflammatory effect was caused by RIPK2 inhibition, compound 14 was subjected to kinase selectivity evaluation (Figure 4). Kinase selectivity profile of compound 14 as shown by the diversity kinase Panel screen against 70 kinases assayed at 1 µM. Among all tested 70 kinases, only five were inhibited over 90% at 1 µM including Fyn, Lyn, BTK, Abl and RIPK2. Three kinases including KDR, CDK9 and LOK were inhibited 50–90% at 1 µM.

Aurora-A(h) = molecular target: T2, Aurora-A(h) (Homo sapiens, UniProt O14965); assay: Kinase selectivity panel: Aurora-A; type: biochemical; conditions: 1 µM
T2 construct: purchased Eurofins (Millipore) KinaseProfiler Diversity Panel
Description: as §1

EGFR(h) = molecular target: T3, EGFR(h) (Homo sapiens, UniProt P00533); assay: Kinase selectivity panel: EGFR; type: biochemical; set-up: unit not given here
T3 construct: purchased Eurofins (Millipore) KinaseProfiler Diversity Panel
Description: as §1

GSK3β(h) = molecular target: T4, GSK3β(h) (Homo sapiens, UniProt P49841); assay: Kinase selectivity panel: GSK3β; type: biochemical; conditions: 1 µM
T4 construct: purchased Eurofins (Millipore) KinaseProfiler Diversity Panel
Description: as §1

JAK3(h) = molecular target: T5, JAK3(h) (Homo sapiens, UniProt P52333); assay: Kinase selectivity panel: JAK3; type: biochemical; conditions: 1 µM
T5 construct: purchased Eurofins (Millipore) KinaseProfiler Diversity Panel
Description: as §1

JAK1(h) = molecular target: T6, JAK1(h) (Homo sapiens, UniProt P23458); assay: Kinase selectivity panel: JAK1; type: biochemical
T6 construct: purchased Eurofins (Millipore) KinaseProfiler Diversity Panel
Description: as §1

CDK1/cyclinB(h) = molecular target: T7, CDK1/cyclinB(h) (Homo sapiens, UniProt P06493); assay: Kinase selectivity panel: CDK1/cyclinB; type: biochemical
T7 construct: purchased Eurofins (Millipore) KinaseProfiler Diversity Panel
Description: as §1

Fyn(h) = molecular target: T8, Fyn(h) (Homo sapiens, UniProt P06241); assay: Kinase selectivity panel: Fyn; type: biochemical
T8 construct: purchased Eurofins (Millipore) KinaseProfiler Diversity Panel
T8 sequence (P06241 whole entry): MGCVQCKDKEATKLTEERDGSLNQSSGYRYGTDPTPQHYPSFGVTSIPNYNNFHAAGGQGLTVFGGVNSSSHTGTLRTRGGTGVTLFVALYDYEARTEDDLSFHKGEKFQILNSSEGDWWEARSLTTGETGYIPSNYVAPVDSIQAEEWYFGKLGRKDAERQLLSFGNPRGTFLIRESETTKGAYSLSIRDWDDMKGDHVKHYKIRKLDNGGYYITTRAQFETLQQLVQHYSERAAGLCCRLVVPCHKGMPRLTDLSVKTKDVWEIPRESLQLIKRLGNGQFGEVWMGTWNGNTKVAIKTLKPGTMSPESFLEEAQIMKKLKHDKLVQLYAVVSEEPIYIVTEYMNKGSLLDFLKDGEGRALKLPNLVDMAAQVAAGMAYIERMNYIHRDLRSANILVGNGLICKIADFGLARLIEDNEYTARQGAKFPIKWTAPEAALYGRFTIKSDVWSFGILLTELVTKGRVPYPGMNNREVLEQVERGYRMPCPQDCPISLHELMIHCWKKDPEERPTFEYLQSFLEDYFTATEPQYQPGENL
Description: as §1

PKCθ(h) = molecular target: T9, PKCθ(h) (Homo sapiens, UniProt Q04759); assay: Kinase selectivity panel: PKCθ; type: biochemical
T9 construct: purchased Eurofins (Millipore) KinaseProfiler Diversity Panel
T9 sequence (Q04759 whole entry): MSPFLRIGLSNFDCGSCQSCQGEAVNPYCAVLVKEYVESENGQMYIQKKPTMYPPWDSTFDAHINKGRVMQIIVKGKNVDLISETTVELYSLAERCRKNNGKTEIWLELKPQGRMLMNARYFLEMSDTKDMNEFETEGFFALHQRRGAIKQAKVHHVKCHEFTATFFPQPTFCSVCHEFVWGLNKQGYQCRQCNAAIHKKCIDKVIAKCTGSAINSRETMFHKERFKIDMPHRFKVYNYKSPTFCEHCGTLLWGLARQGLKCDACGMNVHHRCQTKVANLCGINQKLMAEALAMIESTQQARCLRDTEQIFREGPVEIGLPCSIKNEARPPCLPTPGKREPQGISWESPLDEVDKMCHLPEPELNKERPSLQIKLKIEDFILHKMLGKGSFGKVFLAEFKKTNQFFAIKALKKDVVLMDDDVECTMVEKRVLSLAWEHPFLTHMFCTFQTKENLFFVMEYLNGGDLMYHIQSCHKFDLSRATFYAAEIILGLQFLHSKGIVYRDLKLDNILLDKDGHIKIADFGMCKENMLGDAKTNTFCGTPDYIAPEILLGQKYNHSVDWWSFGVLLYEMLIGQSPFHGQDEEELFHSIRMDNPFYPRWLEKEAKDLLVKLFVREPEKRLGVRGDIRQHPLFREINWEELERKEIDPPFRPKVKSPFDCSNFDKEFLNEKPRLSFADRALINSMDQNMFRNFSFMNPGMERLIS
Description: as §1

CHK1(h) = molecular target: T10, CHK1(h) (Homo sapiens, UniProt O14757); assay: Kinase selectivity panel: CHK1; type: biochemical
T10 construct: purchased Eurofins (Millipore) KinaseProfiler Diversity Panel
Description: as §1

CDK9/cyclin T1(h) = molecular target: T11, CDK9/cyclin T1(h) (Homo sapiens, UniProt P50750); assay: Kinase selectivity panel: CDK9/cyclin T1; type: biochemical
T11 construct: purchased Eurofins (Millipore) KinaseProfiler Diversity Panel
T11 sequence (P50750 whole entry): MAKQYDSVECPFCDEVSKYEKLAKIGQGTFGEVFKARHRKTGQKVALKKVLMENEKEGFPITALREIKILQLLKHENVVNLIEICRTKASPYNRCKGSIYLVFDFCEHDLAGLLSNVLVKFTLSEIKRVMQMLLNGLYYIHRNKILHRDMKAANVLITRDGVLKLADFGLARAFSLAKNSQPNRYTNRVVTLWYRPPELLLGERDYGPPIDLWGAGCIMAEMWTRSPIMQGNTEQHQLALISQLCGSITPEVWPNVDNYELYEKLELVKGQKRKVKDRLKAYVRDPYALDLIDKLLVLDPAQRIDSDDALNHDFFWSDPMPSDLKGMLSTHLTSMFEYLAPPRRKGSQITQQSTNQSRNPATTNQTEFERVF
T11 sequence (O60563 whole entry partner): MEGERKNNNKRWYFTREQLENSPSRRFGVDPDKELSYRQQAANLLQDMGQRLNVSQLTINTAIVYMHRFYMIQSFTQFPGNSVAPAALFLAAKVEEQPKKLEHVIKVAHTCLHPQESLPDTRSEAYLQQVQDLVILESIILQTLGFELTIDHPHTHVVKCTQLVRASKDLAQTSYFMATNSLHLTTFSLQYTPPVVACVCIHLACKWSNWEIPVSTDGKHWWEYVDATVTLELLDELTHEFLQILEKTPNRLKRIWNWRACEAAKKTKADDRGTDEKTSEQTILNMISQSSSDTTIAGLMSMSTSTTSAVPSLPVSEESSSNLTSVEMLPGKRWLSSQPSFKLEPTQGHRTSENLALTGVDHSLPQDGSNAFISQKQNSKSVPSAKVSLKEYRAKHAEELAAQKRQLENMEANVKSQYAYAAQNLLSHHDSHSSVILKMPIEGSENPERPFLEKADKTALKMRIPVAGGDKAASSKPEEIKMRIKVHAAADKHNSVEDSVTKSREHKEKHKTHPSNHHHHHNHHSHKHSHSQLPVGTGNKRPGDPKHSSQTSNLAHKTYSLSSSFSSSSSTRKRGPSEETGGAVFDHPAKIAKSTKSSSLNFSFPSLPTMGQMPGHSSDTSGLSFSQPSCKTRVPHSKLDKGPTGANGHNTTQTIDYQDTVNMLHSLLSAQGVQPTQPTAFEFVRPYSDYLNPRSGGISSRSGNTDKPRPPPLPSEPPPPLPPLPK
Description: as §1

CDK6/cyclinD3(h) = molecular target: T12, CDK6/cyclinD3(h) (Homo sapiens, UniProt Q00534); assay: Kinase selectivity panel: CDK6/cyclinD3; type: biochemical
T12 construct: purchased Eurofins (Millipore) KinaseProfiler Diversity Panel
Description: as §1

[1] = Human liver microsome stability; type: in vitro ADME; conditions: human liver microsomes
LOK(h) = molecular target: T13, LOK(h) (Homo sapiens, UniProt O94804); assay: Kinase selectivity panel: LOK; type: biochemical
T13 construct: purchased Eurofins (Millipore) KinaseProfiler Diversity Panel
T13 sequence (O94804 whole entry): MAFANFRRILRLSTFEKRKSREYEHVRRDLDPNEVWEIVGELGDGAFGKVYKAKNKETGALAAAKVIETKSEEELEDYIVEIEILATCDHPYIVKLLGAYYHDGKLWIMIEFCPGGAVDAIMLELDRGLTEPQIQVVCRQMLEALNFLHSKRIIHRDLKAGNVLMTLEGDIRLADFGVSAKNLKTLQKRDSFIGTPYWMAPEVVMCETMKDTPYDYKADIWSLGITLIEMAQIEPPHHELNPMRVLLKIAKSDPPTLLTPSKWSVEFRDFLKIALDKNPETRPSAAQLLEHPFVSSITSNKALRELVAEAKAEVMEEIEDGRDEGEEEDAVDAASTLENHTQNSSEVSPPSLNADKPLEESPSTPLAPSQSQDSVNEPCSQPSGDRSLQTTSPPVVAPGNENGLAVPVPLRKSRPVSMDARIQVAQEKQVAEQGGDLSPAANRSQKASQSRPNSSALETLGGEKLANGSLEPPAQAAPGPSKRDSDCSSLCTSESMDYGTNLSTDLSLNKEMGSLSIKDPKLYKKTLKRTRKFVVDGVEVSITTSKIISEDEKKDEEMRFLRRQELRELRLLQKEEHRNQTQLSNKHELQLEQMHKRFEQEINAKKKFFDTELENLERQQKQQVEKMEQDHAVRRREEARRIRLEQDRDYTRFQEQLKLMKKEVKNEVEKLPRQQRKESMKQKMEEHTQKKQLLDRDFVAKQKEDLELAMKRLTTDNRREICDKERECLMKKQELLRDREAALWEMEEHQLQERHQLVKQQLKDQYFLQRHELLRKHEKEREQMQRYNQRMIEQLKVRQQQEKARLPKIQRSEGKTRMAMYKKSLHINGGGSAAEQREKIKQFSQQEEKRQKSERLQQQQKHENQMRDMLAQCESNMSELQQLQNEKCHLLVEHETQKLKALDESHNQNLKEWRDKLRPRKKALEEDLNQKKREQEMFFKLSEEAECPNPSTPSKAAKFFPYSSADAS
Description: as §1

SAPK2a(h) = molecular target: T14, SAPK2a(h) (Homo sapiens, UniProt Q16539); assay: Kinase selectivity panel: SAPK2a; type: biochemical
T14 construct: purchased Eurofins (Millipore) KinaseProfiler Diversity Panel
Description: as §1

ROCK-I(h) = molecular target: T15, ROCK-I(h) (Homo sapiens, UniProt Q13464); assay: Kinase selectivity panel: ROCK-I; type: biochemical; conditions: 1 µM
T15 construct: purchased Eurofins (Millipore) KinaseProfiler Diversity Panel
Description: as §1

IKKα(h) = molecular target: T16, IKKα(h) (Homo sapiens, UniProt O15111); assay: Kinase selectivity panel: IKKα; type: biochemical
T16 construct: purchased Eurofins (Millipore) KinaseProfiler Diversity Panel
Description: as §1

Itk(h) = molecular target: T17, Itk(h) (Homo sapiens, UniProt Q08881); assay: Kinase selectivity panel: Itk; type: biochemical
T17 construct: purchased Eurofins (Millipore) KinaseProfiler Diversity Panel
T17 sequence (Q08881 whole entry): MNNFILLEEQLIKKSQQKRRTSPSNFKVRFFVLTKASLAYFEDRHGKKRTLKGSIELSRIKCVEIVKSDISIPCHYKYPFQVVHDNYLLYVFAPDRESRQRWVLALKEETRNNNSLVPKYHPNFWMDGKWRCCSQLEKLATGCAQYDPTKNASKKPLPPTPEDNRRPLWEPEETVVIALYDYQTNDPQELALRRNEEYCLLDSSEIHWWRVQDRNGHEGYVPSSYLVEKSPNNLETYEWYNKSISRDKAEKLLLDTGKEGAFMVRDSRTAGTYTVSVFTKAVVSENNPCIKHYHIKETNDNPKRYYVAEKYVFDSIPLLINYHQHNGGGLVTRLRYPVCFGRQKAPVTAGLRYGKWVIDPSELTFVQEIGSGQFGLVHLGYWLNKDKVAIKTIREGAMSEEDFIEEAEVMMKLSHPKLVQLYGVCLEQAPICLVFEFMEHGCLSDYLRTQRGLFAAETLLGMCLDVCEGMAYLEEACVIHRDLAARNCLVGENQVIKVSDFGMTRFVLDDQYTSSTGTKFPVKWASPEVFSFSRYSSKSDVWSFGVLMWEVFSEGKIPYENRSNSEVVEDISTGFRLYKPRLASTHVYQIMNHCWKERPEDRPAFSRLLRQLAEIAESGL
Description: as §1

ALK(h) = molecular target: T18, ALK(h) (Homo sapiens, UniProt Q9UM73); assay: Kinase selectivity panel: ALK; type: biochemical; conditions: 1 µM
T18 construct: purchased Eurofins (Millipore) KinaseProfiler Diversity Panel
Description: as §1

CK2α2(h) = molecular target: T19, CK2α2(h) (Homo sapiens, UniProt P19784); assay: Kinase selectivity panel: CK2α2; type: biochemical
T19 construct: purchased Eurofins (Millipore) KinaseProfiler Diversity Panel
Description: as §1

IRAK4(h) = molecular target: T20, IRAK4(h) (Homo sapiens, UniProt Q9NWZ3); assay: Kinase selectivity panel: IRAK4; type: biochemical
T20 construct: purchased Eurofins (Millipore) KinaseProfiler Diversity Panel
Description: as §1

Plk3(h) = molecular target: T21, Plk3(h) (Homo sapiens, UniProt Q9H4B4); assay: Kinase selectivity panel: Plk3; type: biochemical; conditions: 1 µM
T21 construct: purchased Eurofins (Millipore) KinaseProfiler Diversity Panel
T21 sequence (Q9H4B4 whole entry): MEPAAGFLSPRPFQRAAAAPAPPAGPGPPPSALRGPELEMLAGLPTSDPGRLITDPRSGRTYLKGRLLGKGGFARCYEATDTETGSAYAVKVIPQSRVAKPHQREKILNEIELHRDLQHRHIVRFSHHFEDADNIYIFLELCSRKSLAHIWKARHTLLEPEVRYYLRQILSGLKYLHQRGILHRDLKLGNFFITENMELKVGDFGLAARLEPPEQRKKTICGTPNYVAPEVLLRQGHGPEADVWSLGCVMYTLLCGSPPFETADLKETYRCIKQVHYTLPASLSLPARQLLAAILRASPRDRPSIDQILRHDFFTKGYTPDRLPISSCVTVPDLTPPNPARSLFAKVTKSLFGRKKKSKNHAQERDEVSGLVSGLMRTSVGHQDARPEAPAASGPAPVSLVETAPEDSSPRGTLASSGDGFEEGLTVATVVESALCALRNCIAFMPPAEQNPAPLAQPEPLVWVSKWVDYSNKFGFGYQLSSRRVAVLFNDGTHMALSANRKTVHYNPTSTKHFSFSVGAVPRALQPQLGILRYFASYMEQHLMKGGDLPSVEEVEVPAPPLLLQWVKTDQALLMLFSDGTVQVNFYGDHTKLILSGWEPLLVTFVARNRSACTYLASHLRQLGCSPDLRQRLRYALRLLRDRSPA
Description: as §1

RIPK1 = molecular target: T22, RIPK1 (Homo sapiens, UniProt Q13546); assay: RIPK1 inhibition rate at 1 µM; type: biochemical
T22 sequence (Q13546 1-671): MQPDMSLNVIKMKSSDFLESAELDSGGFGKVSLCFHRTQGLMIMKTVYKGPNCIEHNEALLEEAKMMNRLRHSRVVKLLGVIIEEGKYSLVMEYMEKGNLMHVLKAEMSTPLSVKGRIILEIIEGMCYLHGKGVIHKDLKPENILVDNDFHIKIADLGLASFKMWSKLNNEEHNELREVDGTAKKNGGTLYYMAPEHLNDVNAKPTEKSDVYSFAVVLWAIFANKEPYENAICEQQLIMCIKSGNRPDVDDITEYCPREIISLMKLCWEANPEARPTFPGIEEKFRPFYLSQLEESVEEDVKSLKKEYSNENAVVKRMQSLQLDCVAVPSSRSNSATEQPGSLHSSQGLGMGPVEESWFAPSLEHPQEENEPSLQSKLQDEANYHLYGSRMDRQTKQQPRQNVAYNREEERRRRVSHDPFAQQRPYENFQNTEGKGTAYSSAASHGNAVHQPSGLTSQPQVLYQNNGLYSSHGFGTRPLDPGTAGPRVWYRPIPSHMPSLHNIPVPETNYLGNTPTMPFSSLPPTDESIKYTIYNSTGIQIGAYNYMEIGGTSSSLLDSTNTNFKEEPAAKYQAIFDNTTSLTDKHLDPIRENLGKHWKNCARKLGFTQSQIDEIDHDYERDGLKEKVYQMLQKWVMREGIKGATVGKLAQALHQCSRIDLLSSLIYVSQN
Description: Table 4. Selectivity, ClogP and LipE of compound 14, 15, 21, 32, 36. | column: RIPK1 IR@1µM (%)

TBK1(h) = molecular target: T23, TBK1(h) (Homo sapiens, UniProt Q9UHD2); assay: Kinase selectivity panel: TBK1; type: biochemical
T23 construct: purchased Eurofins (Millipore) KinaseProfiler Diversity Panel
Description: as §1

MLK1(h) = molecular target: T24, MLK1(h) (Homo sapiens, UniProt P80192); assay: Kinase selectivity panel: MLK1; type: biochemical
T24 construct: purchased Eurofins (Millipore) KinaseProfiler Diversity Panel
Description: as §1

MSK2(h) = molecular target: T25, MSK2(h) (Homo sapiens, UniProt O75676); assay: Kinase selectivity panel: MSK2; type: biochemical
T25 construct: purchased Eurofins (Millipore) KinaseProfiler Diversity Panel
Description: as §1

PRAK(h) = molecular target: T26, PRAK(h) (Homo sapiens, UniProt Q8IW41); assay: Kinase selectivity panel: PRAK; type: biochemical; conditions: 1 µM
T26 construct: purchased Eurofins (Millipore) KinaseProfiler Diversity Panel
T26 sequence (Q8IW41 whole entry): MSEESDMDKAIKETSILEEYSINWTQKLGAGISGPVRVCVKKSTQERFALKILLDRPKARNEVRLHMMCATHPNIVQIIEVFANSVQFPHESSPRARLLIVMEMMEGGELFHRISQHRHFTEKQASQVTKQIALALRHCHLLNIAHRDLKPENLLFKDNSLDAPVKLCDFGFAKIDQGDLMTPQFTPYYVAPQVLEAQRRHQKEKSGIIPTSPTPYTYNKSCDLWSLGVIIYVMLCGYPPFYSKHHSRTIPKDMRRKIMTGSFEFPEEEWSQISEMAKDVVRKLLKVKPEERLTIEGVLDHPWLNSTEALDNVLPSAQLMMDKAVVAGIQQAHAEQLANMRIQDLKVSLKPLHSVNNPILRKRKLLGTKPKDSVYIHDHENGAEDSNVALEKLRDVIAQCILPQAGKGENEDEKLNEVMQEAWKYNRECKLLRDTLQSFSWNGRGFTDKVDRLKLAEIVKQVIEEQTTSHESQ
Description: as §1

mTOR(h) = molecular target: T27, mTOR(h) (Homo sapiens, UniProt P42345); assay: Kinase selectivity panel: mTOR; type: biochemical
T27 construct: purchased Eurofins (Millipore) KinaseProfiler Diversity Panel
Description: as §1

[2] = molecular target: T28, PI3 Kinase (p110d/p85a)(h) (Homo sapiens, UniProt O00329); assay: Kinase selectivity panel: PI3 Kinase (p110d/p85a); type: biochemical; conditions: 1 µM
T28 construct: purchased Eurofins (Millipore) KinaseProfiler Diversity Panel
Description: as §1

AMPKα1(h) = molecular target: T29, AMPKα1(h) (Homo sapiens, UniProt Q13131); assay: Kinase selectivity panel: AMPKα1; type: biochemical
T29 construct: purchased Eurofins (Millipore) KinaseProfiler Diversity Panel
Description: as §1

c1cc(-c2ccc3nccc(Nc4ccc5scnc5c4)c3c2)ccn1 [Compound 14, N-(6-(pyridin-4-yl)quinolin-4-yl)benzo[d]thiazol-5-amine]
Remaining kinase activity at 1 µM (% of control) (PDGFRβ(h)): 64 | Remaining kinase activity (% of control) (Aurora-A(h)): 95 | EGFR(h), 14 @ 1 µM (EGFR(h)): 104 | remaining kinase activity (%) (GSK3β(h)): 75 | Remaining kinase activity (% of control) (JAK3(h)): 100 | JAK1 remaining kinase activity with compound 14 at 1 µM (% of control) (JAK1(h)): 105 | CDK1/cyclinB remaining activity (% of control) with compound 14 at 1 µM (CDK1/cyclinB(h)): 90 | Fyn remaining activity (%) (Fyn(h); 1 µM): 0 | inhibition at 1 µM (Fyn(h); at 1 µM): > 90% | remaining kinase activity (% of control) at 1 µM (PKCθ(h)): 74 | CHK1 remaining activity (% of control) at 1 µM (CHK1(h)): 100 | remaining kinase activity (%) (CDK9/cyclin T1(h); 1 µM): 41 | inhibition at 1 µM (CDK9/cyclin T1(h); at 1 µM): 50 to 90% | Remaining kinase activity (%) at 1 µM (CDK6/cyclinD3(h)): 100 | CL [1]: 9.64 mL/min/kg | half-life [1]: 1.6 h | LOK remaining activity (% of control) (LOK(h); 1 µM): 44 | inhibition at 1 µM (LOK(h); at 1 µM): 50 to 90% | % remaining SAPK2a activity with compound 14 at 1 µM (SAPK2a(h)): 54 | Remaining kinase activity (% of control) (ROCK-I(h)): 70 | Remaining IKKα activity at 1 µM (% of control) (IKKα(h)): 104 | Remaining Itk kinase activity (%) with compound 14 at 1 µM (Itk(h)): 78 | ALK remaining activity (% of control) (ALK(h)): 77 | Remaining CK2α2 kinase activity (%) with compound 14 at 1 µM (CK2α2(h)): 104 | Percent remaining IRAK4 activity with compound 14 at 1 µM (IRAK4(h)): 107 | remaining Plk3 kinase activity (% of control) (Plk3(h)): 86 | RIPK1 IR@1µM (%) (RIPK1): <1% | TBK1 remaining activity (%) with compound 14 at 1 µM (TBK1(h)): 97 | Remaining MLK1 activity (%) with compound 14 at 1 µM (MLK1(h)): 89 | MSK2 remaining kinase activity (% of control) with compound 14 at 1 µM (MSK2(h)): 107 | remaining kinase activity (%) (PRAK(h)): 123 | % remaining mTOR activity with compound 14 at 1 µM (mTOR(h)): 106 | Remaining kinase activity (% of control) [2]: 54 | Remaining kinase activity (%) with compound 14 at 1 µM (AMPKα1(h)): 103
